We go through eight compounds from ChEMBL document CHEMBL3046489, “Synthesis of new, potent avermectin-like insecticidal agents” (Carbohydr Res, 2005).

Series [1] concerns Trichoplusia ni. Nature of the series: Insecticidal activity against Trichoplusia ni (cabbage looper) assessed as mortality after 3 days by cabbage leaf dip bioassay. The format is functional. Details: concentration or dose not given beside the values.
In series [2] the test system is Trichoplusia ni. The experiment in a line: Insecticidal activity against Trichoplusia ni (cabbage looper) assessed as mortality after 6 hr by cabbage leaf dip bioassay. The format is functional, organism-based.
Series [3] can be described thus: Toxicity in Mus musculus ICR (mouse). The series is classed as organism-based. Particulars: in vivo.
In series [4] the test system is Trichoplusia ni. The experiment in a line: Insecticidal activity against Trichoplusia ni (cabbage looper) assessed as mortality after 2 days by cabbage leaf dip bioassay. The format is functional, organism-based.

The source made the active and inactive calls. No cut-off for these calls is given here.

For orientation: mortality means the share of the test organisms that died. For the compound `CC[C@H](C)[C@H]1O[C@]2(C=C[C@@H]1C)C[C@@H]1C[C@@H](C/C=C(\C)[C@@H](O[C@H]3C[C@H](OC)[C@@H](O[C@@H]4C[C@@](C)(OC)[C@@H](OC(C)=O)[C@H](C)O4)[C@H](C)O3)[C@@H](C)/C=C/C=C3\CO[C@@H]4[C@H](O)C(C)=C[C@@H](C(=O)O1)[C@]34O)O2`, in series [1], the mortality is 72%.
The same measure, in the same setting: the value for `CC[C@H](C)[C@H]1O[C@]2(C=C[C@@H]1C)C[C@@H]1C[C@@H](C/C=C(\C)[C@@H](O[C@H]3C[C@H](OC)[C@@H](O[C@@H]4C[C@@](C)(O)[C@@H](OC(C)=O)[C@H](C)O4)[C@H](C)O3)[C@@H](C)/C=C/C=C3\CO[C@@H]4[C@H](O)C(C)=C[C@@H](C(=O)O1)[C@]34O)O2` was 61%.
As usually defined, the LD50 is the dose at which mortality reaches 50%. Regarding `CC[C@H](C)[C@H]1O[C@]2(C=C[C@@H]1C)C[C@@H]1C[C@@H](C/C=C(\C)[C@@H](O[C@H]3C[C@H](OC)[C@@H](O[C@@H]4C[C@@](C)(OC)[C@@H](O)[C@H](C)O4)[C@H](C)O3)[C@@H](C)/C=C/C=C3\CO[C@@H]4[C@H](O)C(C)=C[C@@H](C(=O)O1)[C@]34O)O2`, the result in series [2] was Active. For the same compound, the mortality in series [1] came out at 93%. In series [3], this compound had an LD50 of 17.5 mg/kg.
On the same counts, the results for `CC[C@H](C)[C@H]1O[C@]2(C=C[C@@H]1C)C[C@@H]1C[C@@H](C/C=C(\C)[C@@H](O[C@H]3C[C@H](OC)[C@@H](O[C@H]4O[C@@H](C)[C@@H](OC)[C@@H](OC)[C@@H]4OC)[C@H](C)O3)[C@@H](C)/C=C/C=C3\CO[C@@H]4[C@H](O)C(C)=C[C@@H](C(=O)O1)[C@]34O)O2` are “Active”, 93% and 87.5 mg/kg.
For the compound `CC[C@H](C)[C@H]1O[C@]2(C=C[C@@H]1C)C[C@@H]1C[C@@H](C/C=C(\C)[C@@H](O[C@H]3C[C@H](OC)[C@@H](O[C@@H]4C[C@@](C)(OC)[C@@H](OC)[C@H](C)O4)[C@H](C)O3)[C@@H](C)/C=C/C=C3\CO[C@@H]4[C@H](O)C(C)=C[C@@H](C(=O)O1)[C@]34O)O2`, the mortality in series [1] was determined as 85%.
With `CC[C@H](C)[C@H]1O[C@]2(C=C[C@@H]1C)C[C@@H]1C[C@@H](C/C=C(\C)[C@@H](O[C@H]3C[C@H](OC)[C@@H](O[C@H]4C[C@H](OC)[C@@H](O)[C@H](C)O4)[C@H](C)O3)[C@@H](C)/C=C/C=C3\CO[C@@H]4[C@H](O)C(C)=C[C@@H](C(=O)O1)[C@]34O)O2` [ABAMECTIN COMPONENT B1A], in series [4], the result was Active. In addition, the mortality in series [1] is 53%.
On to `CC[C@H](C)[C@H]1O[C@]2(C=C[C@@H]1C)C[C@@H]1C[C@@H](C/C=C(\C)[C@@H](O[C@H]3C[C@H](OC)[C@@H](O[C@H]4O[C@@H](C)[C@@H](O)[C@@H](O)[C@@H]4O)[C@H](C)O3)[C@@H](C)/C=C/C=C3\CO[C@@H]4[C@H](O)C(C)=C[C@@H](C(=O)O1)[C@]34O)O2`, for which the mortality in series [1] is on record as 37%.
With `CC[C@H](C)[C@H]1O[C@]2(C=C[C@@H]1C)C[C@@H]1C[C@@H](C/C=C(\C)[C@@H](O[C@H]3C[C@H](OC)[C@@H](O[C@@H]4C[C@@H](OC)[C@@H](NC)[C@@H](C)O4)[C@H](C)O3)[C@@H](C)/C=C/C=C3\CO[C@@H]4[C@H](O)C(C)=C[C@@H](C(=O)O1)[C@]34O)O2.O=C(O)c1ccccc1`, in series [4], the result was Active. In addition, in series [1], the mortality came to 90%.
